Laboratory results as given in patent publication EP4745135A1 (Gluetacs Therapeutics (Shanghai) Co., Ltd., priority 2023, dated 2025).

Key:
[1] = system: Human myeloid monocytic leukemia cell (MV-4-11); assay: Tumor cell proliferation inhibition (CellTiter-Meiluncell luminescent cell viability assay); conditions: MV4-11, 96 h; for inhibition at 0.01 µM: read-out: Inhibition Rate at 10 nM (%); for inhibition at 0.5 µM: read-out: Inhibition Rate at 500 nM (%)
IKZF3 = biological target: T1, IKZF3 (Homo sapiens, UniProt Q96SW2+Q9UKT9); assay: Western blot, degradation of substrate protein in hPBMCs; type: cell-based; conditions: Western blot, 24 hours of compound treatment, compounds tested at 50 nM and 500 nM (concentration for the table not stated)
T1 construct: effects of the compounds of the present disclosure on the expression of target proteins in cells; endogenous in cells; host or cells: human PBMCs (Milecell Biotechnologies)
T1 sequence (Q9UKT9 whole entry): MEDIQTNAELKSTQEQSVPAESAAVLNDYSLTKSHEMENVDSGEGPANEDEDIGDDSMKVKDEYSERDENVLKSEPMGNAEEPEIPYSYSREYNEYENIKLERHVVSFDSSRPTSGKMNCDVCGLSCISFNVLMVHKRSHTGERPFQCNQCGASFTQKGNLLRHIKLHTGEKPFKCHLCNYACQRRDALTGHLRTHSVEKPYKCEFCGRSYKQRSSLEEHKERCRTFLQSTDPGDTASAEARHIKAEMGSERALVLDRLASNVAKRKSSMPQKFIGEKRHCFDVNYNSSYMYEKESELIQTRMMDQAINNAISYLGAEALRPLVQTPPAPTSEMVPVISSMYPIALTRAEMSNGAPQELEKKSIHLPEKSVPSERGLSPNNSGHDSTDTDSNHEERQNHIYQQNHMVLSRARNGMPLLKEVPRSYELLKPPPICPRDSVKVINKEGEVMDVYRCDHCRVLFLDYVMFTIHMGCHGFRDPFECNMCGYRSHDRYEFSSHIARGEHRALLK
T1 sequence (Q96SW2 whole entry): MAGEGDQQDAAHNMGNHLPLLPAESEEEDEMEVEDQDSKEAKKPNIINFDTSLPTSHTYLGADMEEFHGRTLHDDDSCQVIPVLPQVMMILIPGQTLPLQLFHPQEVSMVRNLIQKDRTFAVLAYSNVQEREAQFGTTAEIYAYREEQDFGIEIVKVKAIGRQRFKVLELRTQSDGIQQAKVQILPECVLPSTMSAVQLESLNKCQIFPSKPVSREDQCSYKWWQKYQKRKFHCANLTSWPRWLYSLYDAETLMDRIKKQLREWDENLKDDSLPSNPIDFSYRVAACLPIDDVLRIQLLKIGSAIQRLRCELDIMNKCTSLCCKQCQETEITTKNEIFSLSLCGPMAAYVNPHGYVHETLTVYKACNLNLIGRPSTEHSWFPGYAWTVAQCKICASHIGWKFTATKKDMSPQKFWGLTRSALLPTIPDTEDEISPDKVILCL
T1 sequence (Q16531 whole entry partner): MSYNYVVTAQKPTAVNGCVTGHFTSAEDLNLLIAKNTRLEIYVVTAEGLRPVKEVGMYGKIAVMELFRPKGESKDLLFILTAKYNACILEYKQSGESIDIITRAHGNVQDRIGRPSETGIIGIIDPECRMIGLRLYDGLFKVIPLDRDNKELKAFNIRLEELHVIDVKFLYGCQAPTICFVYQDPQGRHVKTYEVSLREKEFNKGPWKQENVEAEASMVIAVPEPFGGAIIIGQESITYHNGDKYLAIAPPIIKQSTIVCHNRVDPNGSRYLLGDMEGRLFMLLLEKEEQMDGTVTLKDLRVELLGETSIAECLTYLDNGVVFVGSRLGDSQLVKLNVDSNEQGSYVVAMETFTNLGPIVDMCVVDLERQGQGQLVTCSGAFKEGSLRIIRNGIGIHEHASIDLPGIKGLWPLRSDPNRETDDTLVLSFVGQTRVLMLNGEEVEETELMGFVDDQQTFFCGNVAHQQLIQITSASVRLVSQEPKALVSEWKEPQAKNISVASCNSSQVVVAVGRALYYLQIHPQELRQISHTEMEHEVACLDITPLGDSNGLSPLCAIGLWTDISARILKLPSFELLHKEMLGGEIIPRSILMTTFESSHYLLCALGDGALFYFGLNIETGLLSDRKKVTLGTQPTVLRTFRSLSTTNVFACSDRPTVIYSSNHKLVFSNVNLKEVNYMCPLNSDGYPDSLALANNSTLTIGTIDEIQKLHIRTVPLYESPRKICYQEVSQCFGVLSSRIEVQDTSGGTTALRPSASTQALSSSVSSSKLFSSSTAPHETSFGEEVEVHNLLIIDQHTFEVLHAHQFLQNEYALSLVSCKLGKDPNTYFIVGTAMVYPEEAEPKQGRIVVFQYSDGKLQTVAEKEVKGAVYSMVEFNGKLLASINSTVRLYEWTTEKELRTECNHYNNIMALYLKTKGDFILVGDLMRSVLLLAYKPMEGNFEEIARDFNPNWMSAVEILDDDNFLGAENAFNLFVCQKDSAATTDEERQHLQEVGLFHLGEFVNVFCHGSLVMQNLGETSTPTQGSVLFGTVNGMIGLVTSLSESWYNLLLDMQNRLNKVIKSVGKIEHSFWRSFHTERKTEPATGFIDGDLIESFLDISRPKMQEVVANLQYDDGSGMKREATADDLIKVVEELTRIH

IKZF2 = biological target: T2, IKZF2 (Homo sapiens, UniProt Q96SW2+Q9UKS7); assay: as above; type: cell-based; conditions: Western blot, 24 hours of compound treatment, compounds tested at 50 nM and 500 nM (concentration for the table not stated)
T2 construct: effects of the compounds of the present disclosure on the expression of target proteins in cells; endogenous in cells; host or cells: human PBMCs (Milecell Biotechnologies)
T2 sequence (Q9UKS7 whole entry): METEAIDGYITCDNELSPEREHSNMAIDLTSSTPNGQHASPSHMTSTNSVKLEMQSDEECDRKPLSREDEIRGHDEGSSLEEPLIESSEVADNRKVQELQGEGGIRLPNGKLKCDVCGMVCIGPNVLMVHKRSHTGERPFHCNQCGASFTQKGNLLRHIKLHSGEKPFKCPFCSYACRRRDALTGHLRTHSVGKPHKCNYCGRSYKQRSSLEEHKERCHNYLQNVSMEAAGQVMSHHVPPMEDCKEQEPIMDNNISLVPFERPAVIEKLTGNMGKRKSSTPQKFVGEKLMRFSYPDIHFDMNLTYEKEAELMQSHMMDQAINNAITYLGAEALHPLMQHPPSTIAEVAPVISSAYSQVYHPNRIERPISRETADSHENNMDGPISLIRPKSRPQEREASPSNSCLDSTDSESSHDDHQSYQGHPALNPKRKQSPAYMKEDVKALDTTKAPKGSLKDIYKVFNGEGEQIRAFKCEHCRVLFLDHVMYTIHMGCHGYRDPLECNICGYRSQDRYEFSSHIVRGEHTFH
T2 sequence (Q96SW2 whole entry): as the sequence (Q96SW2 whole entry) above
T2 sequence (Q16531 whole entry partner): as the sequence (Q16531 whole entry partner) above

CK1α = biological target: T3, CK1α (Homo sapiens, UniProt P48729+Q96SW2); assay: as above; type: cell-based; conditions: Western blot, 24 hours of compound treatment, compounds tested at 50 nM and 500 nM (concentration for the table not stated)
T3 construct: effects of the compounds of the present disclosure on the expression of target proteins in cells; endogenous in cells; host or cells: human PBMCs (Milecell Biotechnologies)
T3 sequence (P48729 whole entry): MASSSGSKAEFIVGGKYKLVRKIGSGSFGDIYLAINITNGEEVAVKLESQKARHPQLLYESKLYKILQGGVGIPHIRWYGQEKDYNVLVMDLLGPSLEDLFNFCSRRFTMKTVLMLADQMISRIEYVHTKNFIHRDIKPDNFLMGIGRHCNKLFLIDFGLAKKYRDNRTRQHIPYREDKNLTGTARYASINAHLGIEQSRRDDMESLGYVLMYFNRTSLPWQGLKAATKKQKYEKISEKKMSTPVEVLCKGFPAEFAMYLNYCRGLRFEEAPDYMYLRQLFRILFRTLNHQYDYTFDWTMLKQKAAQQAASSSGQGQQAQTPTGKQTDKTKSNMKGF
T3 sequence (Q96SW2 whole entry): as the sequence (Q96SW2 whole entry) above
T3 sequence (Q16531 whole entry partner): as the sequence (Q16531 whole entry partner) above

IKZF1 = biological target: T4, IKZF1 (Homo sapiens, UniProt Q13422+Q96SW2); assay: as above; type: cell-based; conditions: Western blot, 24 hours of compound treatment, compounds tested at 50 nM and 500 nM (concentration for the table not stated)
T4 construct: effects of the compounds of the present disclosure on the expression of target proteins in cells; endogenous in cells; host or cells: human PBMCs (Milecell Biotechnologies)
T4 sequence (Q13422 whole entry): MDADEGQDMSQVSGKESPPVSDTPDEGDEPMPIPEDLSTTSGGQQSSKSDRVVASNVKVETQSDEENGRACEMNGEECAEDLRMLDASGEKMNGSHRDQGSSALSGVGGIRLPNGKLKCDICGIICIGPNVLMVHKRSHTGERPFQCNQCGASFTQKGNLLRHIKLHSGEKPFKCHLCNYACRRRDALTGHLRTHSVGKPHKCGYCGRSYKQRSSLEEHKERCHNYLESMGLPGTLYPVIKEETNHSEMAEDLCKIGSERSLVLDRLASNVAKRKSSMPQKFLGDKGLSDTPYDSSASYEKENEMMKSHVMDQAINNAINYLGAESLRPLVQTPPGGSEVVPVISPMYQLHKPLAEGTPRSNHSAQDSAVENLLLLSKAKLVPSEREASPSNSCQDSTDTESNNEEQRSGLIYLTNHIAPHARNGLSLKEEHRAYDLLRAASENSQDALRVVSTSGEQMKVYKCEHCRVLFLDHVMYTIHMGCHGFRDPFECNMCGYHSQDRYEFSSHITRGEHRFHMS
T4 sequence (Q96SW2 whole entry): as the sequence (Q96SW2 whole entry) above
T4 sequence (Q16531 whole entry partner): as the sequence (Q16531 whole entry partner) above

WEE1 = biological target: T5, WEE1 (Homo sapiens, UniProt P30291+Q96SW2); assay: as above; type: cell-based; conditions: Western blot, 24 hours of compound treatment, compounds tested at 50 nM and 500 nM (concentration for the table not stated)
T5 construct: effects of the compounds of the present disclosure on the expression of target proteins in cells; endogenous in cells; host or cells: human PBMCs (Milecell Biotechnologies)
T5 sequence (P30291 whole entry): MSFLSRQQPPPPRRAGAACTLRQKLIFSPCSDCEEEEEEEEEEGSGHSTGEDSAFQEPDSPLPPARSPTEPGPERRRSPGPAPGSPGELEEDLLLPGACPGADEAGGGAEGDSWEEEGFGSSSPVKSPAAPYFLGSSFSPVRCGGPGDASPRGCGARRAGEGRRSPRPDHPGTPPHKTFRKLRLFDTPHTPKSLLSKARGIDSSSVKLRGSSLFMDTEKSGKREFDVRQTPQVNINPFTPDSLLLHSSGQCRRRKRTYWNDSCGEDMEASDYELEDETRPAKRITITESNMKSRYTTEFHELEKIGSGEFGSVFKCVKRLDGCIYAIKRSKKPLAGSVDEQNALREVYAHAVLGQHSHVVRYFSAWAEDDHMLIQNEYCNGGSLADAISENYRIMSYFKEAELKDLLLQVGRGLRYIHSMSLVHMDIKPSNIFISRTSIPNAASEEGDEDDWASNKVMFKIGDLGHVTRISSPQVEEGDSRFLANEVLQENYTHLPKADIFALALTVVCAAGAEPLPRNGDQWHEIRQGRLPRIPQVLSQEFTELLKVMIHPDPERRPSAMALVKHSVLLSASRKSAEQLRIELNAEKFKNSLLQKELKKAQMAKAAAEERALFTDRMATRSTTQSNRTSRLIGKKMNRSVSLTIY
T5 sequence (Q96SW2 whole entry): as the sequence (Q96SW2 whole entry) above
T5 sequence (Q16531 whole entry partner): as the sequence (Q16531 whole entry partner) above

[2] = system: Human acute T lymphocytic leukemia cell (Molt4); assay: Tumor cell proliferation inhibition (CellTiter-Meiluncell luminescent cell viability assay); conditions: MOLT-4, 96 h; for inhibition at 0.01 µM: read-out: Inhibition Rate at 10 nM (%); for inhibition at 0.5 µM: read-out: Inhibition Rate at 500 nM (%)
Description: The tumor cells used herein were cultured in a cell culture medium listed in table 2 at 37°C in an incubator with 5% CO2. Prior to experimentation, all cell lines used were correctly identified by STR profiling, and tested negative for mycoplasma contamination using a mycoplasma detection kit through routine screenings.
The IC50 values of the compounds of the present disclosure (including the compounds in Table 1 and Examples) were determined using the CellTiter-Meiluncell Luminescent Cell Viability Assay Kit from Dalian Meilun Biotech Co., Ltd. The detailed procedure is as follows: Tumor cells were seeded in 96-well cell culture plates at the densities specified in Table 3. On the following day, the test compounds of the present disclosure were subjected to serial dilution. The dilution can be performed according to one of the following two methods: • (1) The first dilution method: The test compounds of the present disclosure (including the compounds in Table 1 and Examples) were subjected to 5-fold serial dilutions starting from a highest concentration of 2000 µM, resulting in a total of 9 concentrations from high to low (2000, 400, 80, 16, 3.2, 0.64, 0.128, 0.0256, 0.00512 µM). Subsequently, 0.5 µL of the test compound dilution was transferred into the 96-well plate containing the cells, with each well containing 100 µL of cell culture medium. […] Into the 96-well plate, the diluted test compounds and corresponding detection reagents were added, resulting in final test compound concentrations of 500 nM and 10 nM, respectively. The experimental procedure is described below using the diluted 2 µM test compound as an example.
0.5 µL of the aforementioned diluted compound of the present disclosure (including the compounds in Table 1 and Examples) was added to the seeded cells in 100 µL of medium, yielding a final test compound concentration of 10 nM. After the cells were treated with the compounds of the present disclosure for a specified period, the cell viability assay reagent was added to the culture medium according to the kit's instructions to determine cell viability. […] All controls were treated using the same procedure as the compounds of the present disclosure. The growth inhibition curves for the compounds of the present disclosure were plotted using Prism GraphPad software, and the IC50 values were calculated therefrom.

GSPT1 = assay: Western blot, degradation of substrate protein in hPBMCs; type: cell-based, Human; conditions: Western blot, 24 hours of compound treatment, compounds tested at 50 nM and 500 nM (concentration for the table not stated)
[3] = biological target: T6, human Cereblon WT GST-tagged protein (Homo sapiens, UniProt Q96SW2); assay: CRBN-binding affinity, HTRF (CEREBLON BINDING kit); conditions: for inhibition at 0.5 µM: read-out: Inhibition Rate at 0.5 µM (%); for inhibition at 2 µM: read-out: Inhibition Rate at 2 µM (%)
T6 construct: purchased CISBIO 64BDCRBNPEH
T6 sequence (Q96SW2 whole entry): as the sequence (Q96SW2 whole entry) above

[4] = system: Human multiple myeloma cell (MM.1S); assay: Tumor cell proliferation inhibition (CellTiter-Meiluncell luminescent cell viability assay); conditions: Homo sapiens, MM1.S, 96 h; for inhibition at 0.01 µM: read-out: Inhibition Rate at 10 nM (%); for inhibition at 0.5 µM: read-out: Inhibition Rate at 500 nM (%)

| inhibition at 0.5 µM [3] | inhibition at 2 µM [3] | Structure (SMILES) | inhibition at 0.01 µM [1] | inhibition at 0.5 µM [1] | IKZF3 substrate protein remaining % (IKZF3) | IKZF2 substrate protein remaining % (IKZF2) | CK1α substrate protein remaining % (CK1α) | IKZF 1 substrate protein remaining % (IKZF1) | Wee1 substrate protein remaining % (WEE1) | inhibition at 0.01 µM [2] | inhibition at 0.5 µM [2] | GSPT1 substrate protein remaining % (GSPT1) | inhibition at 0.01 µM [4] | inhibition at 0.5 µM [4] |
| --- | --- | --- | --- | --- | --- | --- | --- | --- | --- | --- | --- | --- | --- | --- |
| 40 to 53% | 80 to 100% | COc1ccccc1N1CCN(Cc2ccc3c(c2)CN(C2CCC(=O)NC2=O)C3=S)CC1 (stereo not shown) [GT-08236, 3-(5-((4-(2-methoxyphenyl)piperazin-1-yl)methyl)-1-thioxoisoindolin-2-yl)piperidine-2,6-dione] | 10 to 18% | 60 to 80% | B (80%< substrate protein remaining %≤ 100%) | B (80%< substrate protein remaining %≤ 100%) | B (80%< substrate protein remaining %≤ 100%) | B (80%< substrate protein remaining %≤ 100%) | B (80%< substrate protein remaining %≤ 100%) | 10 to 20% | 40 to 50% | A (0% ≤ substrate protein remaining % ≤ 80%) | – | – |
| 20 to 30% | 60 to 80% | O=C1CCC(N2Cc3cc(CN4CCN(C(c5ccc(F)cc5)c5ccc(F)cc5)CC4)ccc3C2=S)C(=O)N1 (stereo not shown) [GT-07736, 3-(5-((4-(bis(4-fluorophenyl)methyl)piperazin-1-yl)methyl)-1-thioxoisoindolin-2-yl)piperidine-2,6-dione] | 10 to 18% | 40 to 60% | A (0% ≤ substrate protein remaining % ≤ 80%) | B (80%< substrate protein remaining %≤ 100%) | B (80%< substrate protein remaining %≤ 100%) | A (0% ≤ substrate protein remaining % ≤ 80%) | A (0% ≤ substrate protein remaining % ≤ 80%) | 10 to 20% | 40 to 50% | A (0% ≤ substrate protein remaining % ≤ 80%) | 10 to 20% | 80 to 100% |
| 30 to 40% | 60 to 80% | Cc1ccc(Cl)cc1N1CCN(Cc2ccc3c(c2)CN(C2CCC(=O)NC2=O)C3=S)CC1 (stereo not shown) [GT-08615, 3-(5-((4-(5-chloro-2-methylphenyl)piperazin-1-yl)methyl)-1-thioxoisoindolin-2-yl)piperidine-2,6-dione] | – | – | B (80%< substrate protein remaining %≤ 100%) | B (80%< substrate protein remaining %≤ 100%) | B (80%< substrate protein remaining %≤ 100%) | B (80%< substrate protein remaining %≤ 100%) | B (80%< substrate protein remaining %≤ 100%) | 5 to 10% | 50 to 60% | A (0% ≤ substrate protein remaining % ≤ 80%) | 10 to 20% | 40 to 50% |
| 53 to 60% | 80 to 100% | Cc1ccc(N2CCN(Cc3ccc4c(c3)CN(C3CCC(=O)NC3=O)C4=S)CC2)cc1 (stereo not shown) [GT-08603, 3-(1-thioxo-5-((4-(p-tolyl)piperazin-1-yl)methyl)isoindolin-2-yl)piperidine-2,6-dione] | 40 to 60% | 80 to 100% | B (80%< substrate protein remaining %≤ 100%) | B (80%< substrate protein remaining %≤ 100%) | B (80%< substrate protein remaining %≤ 100%) | B (80%< substrate protein remaining %≤ 100%) | B (80%< substrate protein remaining %≤ 100%) | 0 to 5% | 40 to 50% | A (0% ≤ substrate protein remaining % ≤ 80%) | 30 to 40% | 50 to 60% |
